pKd: −log10 of the molar value.
Key:
S. cerevisiae Hsp90 [1] = target: S. cerevisiae Hsp90; set-up: method as in Owen, B. A. L. et al. J. Biol. Chem. 277, 7086–7091 (2002); conditions: ref Owen, B. A. L. et al. J. Biol. Chem. 277, 7086–7091 (2002); read-out: Kd for ATP; cited from earlier work
human Hsp90 [2] = target: human Hsp90; set-up: method as in Owen, B. A. L. et al. J. Biol. Chem. 277, 7086–7091 (2002); conditions: ref Owen, B. A. L. et al. J. Biol. Chem. 277, 7086–7091 (2002); read-out: Kd for ATP; cited from earlier work
S. cerevisiae Hsp90 [3] = test system: S. cerevisiae Hsp90; set-up: method as in Owen, B. A. L. et al. J. Biol. Chem. 277, 7086–7091 (2002); conditions: ref Owen, B. A. L. et al. J. Biol. Chem. 277, 7086–7091 (2002); read-out: Km (ATP); cited from earlier work
human Hsp90 [4] = conditions: read-out: Km (ATP); ref Owen, B. A. L. et al. J. Biol. Chem. 277, 7086–7091 (2002); cited from earlier work
C. albicans Hsp90 [5] = target: T1, C. albicans Hsp90 (Candida albicans, UniProt P46598); assay: ATP binding by intrinsic tryptophan fluorescence quenching; conditions: read-out: Kd for ATP; purified full-length Hsp90
Text: tryptophan fluorescence quenching by ligands.
Intrinsic tryptophan fluorescence was
Difference in intrinsic fluorescence of
assuming single-site specific binding.

C. albicans Hsp90 [6] = target: T1, C. albicans Hsp90; assay: ATPase activity, Michaelis-Menten / Lineweaver-Burk; assay type: biochemical; set-up: the core ATPase activity of purified full-length homodimers from each species; 6x-His (pRSET-A) (N); made in house; host or cells: E. coli RIL; conditions: γ-32P-labeled ATP
Text: 1151 Biochemical characterization of C. albicans Hsp90. a, Binding of C. albicans Hsp90 to its
1152 natural ligand ATP. b, Michaelis-Menten plot correlating the rate of ATP hydrolysis by C.
1153 albicans Hsp90 with concentration of substrate. Fractional cleavage of γ-32P-labeled ATP is
1154 plotted against ATP concentration. c, Lineweaver-Burk plot performed to define Km and kcat for
1155 the ATPase activity of C. albicans Hsp90. d, Comparison of parameters determined for C.
1156 albicans Hsp90 with previously published data for homologous human and yeast (S. cerevisiae)

[7] = test system: S. cerevisiae expressing C. albicans Hsp90; assay: Broth microdilution growth inhibition (MIC), yeast with C. albicans Hsp90 as sole Hsp90; assay type: cell-based, Saccharomyces cerevisiae; conditions: twofold dilution series, heat map
Text: (§1) A critical consideration in the development of an effective antifungal is not just target binding, but also access to the target across microbial cell membranes and cell walls. Therefore, we evaluated the potency and selectivity of oxime analogs using drug susceptibility assays. We used strains of S. cerevisiae where both endogenous genes encoding isoforms of Hsp90 have been disrupted and growth is solely dependent upon C. albicans or human Hsp90 isoforms.
(§2) Antifungal tolerance and resistance were determined in flat bottom, 96-well microtiter plates using a modified broth microdilution protocol as described[8],[10]. All Hsp90 inhibitors were formulated in dimethyl sulfoxide (DMSO, Sigma Aldrich Co.); fluconazole was dissolved in sterile ddH2O. Each strain was tested in duplicate on at least two occasions. […] To test for fungicidal activity, cultures from MIC plates were spotted on YPD agar plates using a spotter (Frogger, V&P Scientific, Inc). Plates were photographed after 48 h of incubations at 30 °C.

[8] = test system: S. cerevisiae expressing human Hsp90α; assay type: cell-based, Saccharomyces cerevisiae; conditions: isogenic strains
Text: as §1, §2

C. albicans SN95 = assay: Growth inhibition in culture; assay type: cell-based, Candida albicans; conditions: 48-hour exposure
Text: (§3) We began by measuring inhibition of C. albicans growth in culture.
(§4) Each colored box represents the mean of duplicate determinations. Color scale for relative growth is provided to far right of panel, green: no inhibition to black: complete inhibition. […] Cultures were then fixed and stained by Periodic Acid-Schiff (PAS) technique to visualize fungal burden (dark red/purple signal) and underlying human cells (light pink signal). Representative fields from conventional light photomicrographs are presented at the same magnification in all panels. The experiment was repeated in two independent biological replicates to confirm results. Scale bar, 100 μm
as §2

[9] = test system: C. albicans clinical isolate CaCi-2; assay: Growth inhibition in culture; assay type: cell-based, Candida albicans; conditions: 48-hour exposure
Text: as §3, §4, §2

Raw264.7 macrophages = assay: Phagocytosis of GFP C. albicans by macrophages, flow cytometry; assay type: cell-based, mouse; conditions: 2 h pre-treatment
Experimental: Compromise of host immune function and other target-related toxicities preclude the use of non-species-selective Hsp90 inhibitors in the treatment of fungal infections. Host defense against invasive infection relies heavily on the ingestion and destruction of C. albicans by innate immune cells, such as macrophages. […] After an additional two hours, phagocytosis of the fluorescently labeled fungi was measured by flow cytometry. […] This Hsp90-dependent morphogenetic program has an important role in the organism’s virulence and interactions with host immune effectors such as macrophages.
The ingestion of GFP-marked C. albicans CaCi-2 (CaLC867, Table S4) by mouse macrophages was monitored using flow cytometry. Raw264.7 macrophage cultures were pre-treated with various concentrations of Hsp90 inhibitors for 2 h at 37 °C and then infected with fungus at a multiplicity of infection of ~2 for an additional 2 h. Wells were harvested by trypsinization and resultant cell suspensions incubated with Guava ViaCount reagent per manufacturer’s recommendation (Millipore Sigma, Cat #4000-0040). Red fluorescent signal was used to identify macrophages while green fluorescent signal identified the fungus. Dual positive (red and green) events with appropriate forward- and side-scatter parameters were quantitated as representative of ingestion of fungus by a macrophage. […]

C. albicans CaCi-2 = assay: Checkerboard with fluconazole, Bliss independence; assay type: cell-based, Candida albicans; conditions: 48 hours
Experimental: Each colored box represents the mean of duplicate determinations. […] Error bars, SD.
as §2

T1 sequence (P46598 whole entry): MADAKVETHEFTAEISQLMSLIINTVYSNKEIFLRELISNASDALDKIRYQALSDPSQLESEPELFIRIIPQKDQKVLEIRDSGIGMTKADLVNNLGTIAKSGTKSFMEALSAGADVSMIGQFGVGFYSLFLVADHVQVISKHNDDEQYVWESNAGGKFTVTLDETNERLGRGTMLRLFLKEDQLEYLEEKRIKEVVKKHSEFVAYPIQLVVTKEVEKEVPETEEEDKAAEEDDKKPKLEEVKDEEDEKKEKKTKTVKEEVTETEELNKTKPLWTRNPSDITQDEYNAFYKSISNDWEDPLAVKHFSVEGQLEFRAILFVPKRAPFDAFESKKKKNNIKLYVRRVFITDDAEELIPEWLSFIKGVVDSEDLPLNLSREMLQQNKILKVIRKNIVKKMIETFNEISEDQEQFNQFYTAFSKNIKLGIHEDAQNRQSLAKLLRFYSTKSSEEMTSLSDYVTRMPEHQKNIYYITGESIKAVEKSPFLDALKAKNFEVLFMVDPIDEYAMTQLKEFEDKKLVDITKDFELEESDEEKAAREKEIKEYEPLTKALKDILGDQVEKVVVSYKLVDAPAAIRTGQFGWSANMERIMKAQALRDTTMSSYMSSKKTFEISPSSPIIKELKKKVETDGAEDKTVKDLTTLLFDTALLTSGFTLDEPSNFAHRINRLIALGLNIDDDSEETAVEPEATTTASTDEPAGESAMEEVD

SMILES | pKd (S. cerevisiae Hsp90 [1]) | pKd (human Hsp90 [2]) | Km (S. cerevisiae Hsp90 [3]) [µM] | Km (human Hsp90 [4]) [µM] | pKd (C. albicans Hsp90 [5]) | Km (C. albicans Hsp90 [6]) [µM] | growth inhibition [7] | activity compared with strain expressing C. albicans Hsp90 [8] | single-agent growth inhibition (C. albicans SN95) | single-agent growth inhibition [9] | effect on engulfment of C. albicans (Raw264.7 macrophages) | Bliss synergy δ with fluconazole (C. albicans CaCi-2) | heat-shock reporter activation (293T reporter cells)
Nc1ncnc2c1ncn2[C@@H]1O[C@H](COP(=O)(O)OP(=O)(O)OP(=O)(O)O)[C@@H](O)[C@H]1O [ATP] | 3.88 | 3.62 | 511 | 324 | 3.90 | 533 | – | – | – | – | – | – | –
C[C@@H]1C[C@H]2O[C@@H]2/C=C\C=C\C(=O)Cc2c(Cl)c(O)cc(O)c2C(=O)O1 [radicicol, reference compound] | – | – | – | – | – | – | significantly inhibit growth | converse | comparable single-agent activity | comparable single-agent activity | Neither compound impaired engulfment | 22.6 | concentration-dependent reporter activation

— paper PMC6345968, “Structural basis for species-selective targeting of Hsp90 in a pathogenic fungus” (Nature Communications, 2019)
